From PubChem BioAssay AID624419 (Sanford-Burnham Center for Chemical Genomics, 2012) come the findings set out here.

In this series the test system is mouse plasma stability, percent remaining. The series is described as follows: stability of compounds in murine plasma, second set, biochemical ADME (AID 624419). The settings on record: at 1 µM.
For the compound `Brc1cc2c(cc1C1Nc3ccccc3C3C=CCC31)OCO2` (stereo not given), the plasma stability turned out to be 100%. As for `COc1ccccc1N(/N=C1\Sc2ccccc2C1=O)C(C)=O`, the figure is 4.35%.

Turning to `C/C=C/Cn1c(SCCCc2ccccc2)nc2c1c(=O)[nH]c(=O)n2C`, the plasma stability turned out to be 100%. With `Cc1ccc(C)c(NS(=O)(=O)c2cc(C(=O)Nc3ccccc3-c3ccccc3)ccc2Cl)c1`, the plasma stability was 83.4%. Regarding `Cc1ccccc1N1CCN(c2ncnc3c2cnn3Cc2ccc(Cl)cc2)CC1`, the plasma stability was determined as 100%.

On to `Cc1ccc(S(=O)(=O)C(c2ccccc2)c2c(C)noc2C)cc1` (stereo not given), for which the plasma stability was determined as 97.8%. `Cc1ccc(S(=O)(=O)NCc2ccc(C(=O)NCCN(Cc3ccccc3)C(C)C)cc2)cc1` gave a plasma stability of 100%. Compound `Cc1ccc(S(=O)(=O)n2c(N)nc3ccccc32)cc1` came in with a plasma stability of 100%. The compound `c1ccc(CC2CCN(c3ncnc4sccc34)CC2)cc1` registered a plasma stability of 100%. The value for `COC(=O)c1ccccc1NC(=O)c1ccc(F)cc1` was 17%; that for `CCc1nnc(NC(=O)c2ccc(NS(=O)(=O)c3ccccc3)cc2)s1` was 97.6%.

For the compound `CCCc1cc(C(=O)N(C2CCCCC2)C2CCCCC2)no1`, the plasma stability came to 84%.

`COc1cccc(-c2nc(-c3ccc(NC(=O)Cc4ccccc4OC)cc3)no2)c1`: the plasma stability is 100%. Regarding `O=C(O)c1cccnc1SCCc1ccccc1`, the plasma stability is 100%.

For the compound `N#C/C(=C\c1ccc([N+](=O)[O-])o1)c1nc2ccccc2[nH]1`, the plasma stability turned out to be 9.6%. The value for `CCOC(=O)C(C)Oc1cccc2c(=O)n(CC(=O)Nc3ccc4c(c3)OCCO4)ccc12` (stereo not given) was 0.19%; that for `O=C(O)c1ccc(N2C(=O)/C(=C/c3ccc(-c4ccc([N+](=O)[O-])cc4)o3)C=C2c2ccccc2)cc1` was 99.7%; that for `COc1ccc(CNCc2cccc3ccccc23)cc1` was 80.5%. As to `Cc1cc(C)n(-c2nc(NCCCO)c3c4c(sc3n2)CCCC4)n1`, the plasma stability stood at 100%. Consider `O=C1NCCCc2c1oc1ccc(O)cc21`, for which the plasma stability is 97.2%. Compound `CC(=O)c1ccc(N2CCN(S(=O)(=O)c3ccc4c(c3)CC(=O)N4)CC2)cc1` yielded a plasma stability of 100%.

`N#Cc1ccccc1CSc1nc2ncc(Br)cc2[nH]1` came in with a plasma stability of 100%. In turn, `CCCn1ncc(CN2CCCC(C(=O)c3cccc(OC(C)C)c3)C2)c1C` (stereo not given) came in with a plasma stability of 96.7%.

On to `CCc1oc2ccccc2c1C(=O)c1cc(Br)c(O)c(Br)c1`, for which the plasma stability stood at 100%. On to `O=C1CCCC2=C1C1(CCCC1)N=C(Nc1nc3ccccc3o1)N2`, for which the plasma stability is 100%. As for `Cc1cc(-c2nnc3n2CCCCC3)c(C)n1-c1ccccc1`, the figure is 91.3%; as for `Cc1cc(C(=O)CN2C(=O)CCC2=O)c(C)n1Cc1ccccc1`, 98%. As for `CCCc1nc2c(=O)n(C)c(=O)nc-2n(C)n1`, the plasma stability came to 56.7%.

Consider `CCOc1ccc(-c2nc(-c3ccncc3)no2)cc1OCC`, for which the plasma stability was determined as 92.1%. The compound `O=C(CSc1cccc2cccnc12)N1CCCC1` displayed a plasma stability of 100%. Compound `Cc1ccnc(NC(=O)CCCOc2cc(=O)n(C)c3ccccc23)c1` had a plasma stability of 0.15%.

`COc1ccc(S(=O)(=O)N2CCN(S(=O)(=O)c3ccc4c(c3)OCCO4)CC2)cc1` returned a plasma stability of 100%.

As for `COc1nc(-c2ccccc2)nnc1-c1ccccc1`, the plasma stability was found to be 100%.

As to `O=[N+]([O-])c1ccc(CN2CCOCCOCCN(Cc3ccc([N+](=O)[O-])cc3)CCOCC2)cc1`, the plasma stability turned out to be 100%. As for `COc1ccc(OC)c(-c2nnc3n2N=C(c2ccc(OC)c(OC)c2)CS3)c1`, the figure is 100%. `Cc1ccc(N2CCN(S(=O)(=O)N3CCCCC3)CC2)c(C)c1` came in with a plasma stability of 100%. With `c1ccc(-c2nnc(N3CCOCC3)nc2-c2ccccc2)cc1`, the plasma stability stood at 100%. In turn, `COc1ccc(CSc2nc(C)cc(=O)[nH]2)cc1` came in with a plasma stability of 100%. `CCN1CCN(c2nc3ccccc3nc2C(C#N)C(=O)OC2CCCCC2)CC1` (stereo not given) registered a plasma stability of 15.5%. The compound `Cc1cccc(-n2cnc3cc(C(=O)N4CCCCC4)ccc32)c1` yielded a plasma stability of 87.1%. As to `CCOc1ccc(NC(=S)N2CCC(C(O)(c3ccccc3)c3ccccc3)CC2)cc1`, the plasma stability stood at 73.7%. `c1ccc2c(Nc3nnc(-c4ccncc4)s3)cccc2c1` showed a plasma stability of 96.4%. As for `CCCC(=O)Nc1cccc(NC(=O)c2ccccc2Br)c1`, the plasma stability is 0.14%. The value for `COc1cc(NC(=O)c2cc(C3CC3)on2)c(OC)cc1Cl` was 42.4%; that for `COc1ccc(OC)c(S(=O)(=O)Nc2cnc3ccccc3c2)c1` was 100%; that for `Cc1cc(C)nc(-n2nc(C)c(Sc3ccc(F)cc3)c2N)n1` was 93.6%.

The compound `O=c1[nH]c(SCc2ccc(Cl)cc2)nc2c1CCC2` yielded a plasma stability of 100%. Turning to `Cc1cc2c(s1)c1cnn(Cc3ccccc3F)c(=O)c1n2C`, the plasma stability worked out at 89.8%. As for `Cc1ccc(NC(=O)CCC(=O)N/N=C/c2ccc([N+](=O)[O-])o2)cc1C`, the figure is 73.3%. In turn, `CN(C)c1oc(-c2ccc(OCc3ccc(Cl)cc3)cc2)nc1C#N` returned a plasma stability of 91.4%. On to `O=c1[nH]c2c(s1)C(c1cccnc1)C1C3CCC(C3)C1S2` (stereo not given), for which the plasma stability stood at 100%. The compound `Cc1ccc(-n2c(N)c(C#N)c(-c3ccccc3)c(C#N)c2=O)cc1` showed a plasma stability of 100%. The value for `CCCN1CNc2c(c(=O)[nH]c(=S)n2CCc2ccc(OC)c(OC)c2)C1` was 99.5%; that for `O=C(COC(=O)C12CC3CC(CC(C3)C1)C2)NCc1ccco1` was 2.35%; that for `O=C(O)c1ccccc1OCc1ccccc1Br` was 100%. `O=C(COc1ccccc1Br)NCCc1nc2ccccc2[nH]1` showed a plasma stability of 100%.

`Cc1ccc(C(=O)n2c3ccccc3c3ccccc32)cc1` displayed a plasma stability of 100%. In turn, `NC(=O)C1CCN(c2nc(-c3ccc(Br)cc3)cs2)CC1` returned a plasma stability of 82.8%.

`Cc1ccc(NS(=O)(=O)c2ccc3c(c2)CCC(=O)N3)cc1C` came in with a plasma stability of 100%. As to `Cc1ccc(C)c(OCCn2cc(C(=O)O)c3ccccc32)c1`, the plasma stability came out at 94.8%. On to `COc1ccc(S(=O)(=O)n2nc(OC(=O)c3ccccc3)cc2N)cc1`, for which the plasma stability was 73.7%. The value for `CCCN(CCC)CCNC(=O)C1CCN(Cc2nc(-c3ccc(Cl)cc3)oc2C)CC1` was 100%; that for `CCCOc1ccc(-c2nc(OC)c3ccccc3n2)cc1` was 100%; that for `CC[C@H]1CN2CCc3cc(OC)c(OC)cc3[C@@H]2C[C@@H]1C[C@H]1NCCc2cc(OC)c(OC)cc21` was 100%.

`O=C(c1ccccn1)N(Cc1cccs1)C1(C(=O)NC2CCCCC2)CCCCC1` gave a plasma stability of 100%. Compound `COc1ccc(C2c3c(ncn(CCN4CCOCC4)c3=N)Oc3ccc4ccccc4c32)cc1OC` (stereo not given) registered a plasma stability of 100%. `O=C(CCNS(=O)(=O)c1cccc2nsnc12)N1CCN(c2ccccn2)CC1` gave a plasma stability of 100%.

Compound `Cn1cnc([N+](=O)[O-])c1Sc1ncnc2nc[nH]c12` displayed a plasma stability of 84.1%.

Turning to `COc1ccc(C2CC(c3ccccc3)=NN2c2ccc(S(N)(=O)=O)cc2)cc1` (stereo not given), the plasma stability was determined as 100%.

`CN(C)C1=C(Cl)C(=O)N(c2ccc(Cl)c(Cl)c2)C1=O` displayed a plasma stability of 6.46%. `O=S1(=O)Nc2c(ccc3cccnc23)-c2ccccc21` came in with a plasma stability of 100%. `CC(C)C(=O)NC(c1ccco1)c1ccc2cccnc2c1O` (stereo not given) had a plasma stability of 95.2%. `CC1CCCN(C(C(=O)Nc2ccc3c(c2)OCCO3)c2ccccc2)C1` (stereo not given) registered a plasma stability of 100%. With `Cn1nnnc1Sc1ncnc2scc(-c3ccccc3)c12`, the plasma stability was 81.9%. `Cc1nc(SCc2nc3ccccc3[nH]2)c2oc3ccccc3c2n1` displayed a plasma stability of 100%. As for `O=C(O)CCC(NS(=O)(=O)c1ccc(-c2ccccc2)cc1)C(=O)O` (stereo not given), the figure is 88.8%; as for `CS(=O)(=O)c1ccc(C(=O)OCC(=O)NC23CC4CC(CC(C4)C2)C3)cc1[N+](=O)[O-]`, 91.4%; as for `CSc1nc(-c2ccc(C)cc2)nc(C(Cl)Cl)n1`, 84.8%.

The compound `O=C1C2CC=CCC2C(=O)N1c1n[nH]c(-c2ccccc2)n1` (stereo not given) showed a plasma stability of 52.7%.

Take `COc1ccc(N(C(=O)CCl)C(C(=O)NCCc2ccccc2)c2cccs2)cc1Cl` (stereo not given): the plasma stability was 15.3%. With `O=S(=O)(NC1CCCCC1N1CCOCC1)c1ccc(Cl)cc1` (stereo not given), the plasma stability came to 100%. In turn, `Brc1ccc2c(c1)CN1CCCC1=N2` gave a plasma stability of 100%. The value for `COc1ccc(Sc2ccc(NC(=O)c3ccccc3Cl)cc2C#N)cc1` was 91.6%.

In turn, `CN(C)c1nc(N)nc(CSc2nnnn2-c2cccc3ccccc23)n1` registered a plasma stability of 100%. As to `C=CCn1c(SCC(=O)c2ccc(O)c(O)c2)nnc1-c1ccccc1OC`, the plasma stability was determined as 73.5%.
